Inhibition data for 1 compound are collected here from article PMC8474119, “Discovery and SAR Evolution of Pyrazole Azabicyclo[3.2.1]octane Sulfonamides as a Novel Class of Non-Covalent N-Acylethanolamine-Hydrolyzing Acid Amidase (NAAA) Inhibitors for Oral Administration” (Journal of Medicinal Chemistry, 2021).

Test [1] has as its target T1, human FAAH (Homo sapiens, UniProt O00519).
T1 construct: made in house; host or cells: HEK-293 cells stably overexpressing human FAAH-1; membrane-enriched lysate
T1 sequence (O00519 1-579): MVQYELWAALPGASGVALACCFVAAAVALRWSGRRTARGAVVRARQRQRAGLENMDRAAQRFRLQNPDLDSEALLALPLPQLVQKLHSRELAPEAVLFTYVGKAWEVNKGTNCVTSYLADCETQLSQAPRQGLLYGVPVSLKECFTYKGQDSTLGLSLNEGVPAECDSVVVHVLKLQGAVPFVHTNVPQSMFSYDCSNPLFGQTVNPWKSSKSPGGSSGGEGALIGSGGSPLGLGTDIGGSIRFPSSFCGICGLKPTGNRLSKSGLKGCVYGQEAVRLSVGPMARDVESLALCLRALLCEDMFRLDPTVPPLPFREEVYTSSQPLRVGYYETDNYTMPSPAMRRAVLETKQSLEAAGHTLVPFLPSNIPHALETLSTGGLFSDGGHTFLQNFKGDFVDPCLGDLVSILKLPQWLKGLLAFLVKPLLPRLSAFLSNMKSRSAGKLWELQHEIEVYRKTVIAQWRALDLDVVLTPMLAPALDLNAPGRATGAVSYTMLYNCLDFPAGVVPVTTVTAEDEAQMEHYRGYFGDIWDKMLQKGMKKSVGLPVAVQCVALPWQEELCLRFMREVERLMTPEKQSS
Nature of the test: Fluorogenic human-FAAH-1 assay. The test is classed as biochemical. The protocol:
(§1) Human recombinant proteins were obtained from HEK-293 stable overexpressing human NAAA, AC, and FAAH-1 cell lines, respectively. Cells were grown in Dulbecco’s modified Eagle medium (DMEM) containing 10% FBS, 1% glutamine, 1 mM sodium pyruvate, and 500 μg/mL geneticin (G418). To obtain a high-density cell proliferation, h-NAAA-HEK-293 cells were grown in BelloCell-500 bottle, a compact bioreactor. On the contrary, h-AC and h-FAAH-1-HEK-293 cells were grown in 150 mm dishes and scraped off with cold PBS 1× pH 7.4 at 80% confluence. Cell pellets were collected and stored at −80 °C until protein preparation.
Cell pellets, obtained by centrifugation at 300g for 7 min at 4 °C, were resuspended in 20 mM Tris-HCl pH 7.4, 0.32 M sucrose, disrupted by sonication (10 pulses, 5 times), and centrifuged (1000g, 10 min, 4 °C). […] Membrane pellets were resuspended in PBS to obtain h-FAAH-1 preparation; the protein concentration was measured by the Bradford Protein Assay (BioRad) and samples were aliquoted and stored at −80 °C until use.
The fluorescence assay to measure FAAH activity was performed in 96-well black plates (Black OptiPlate-96 F; PerkinElmer, Massachusetts, USA): 2.5 μg of human FAAH-1 membrane preparation was preincubated for 50 min at 37 °C, in 190 μL of assay buffer (50 mM Tris-HCl pH 7.4, 0.05% Fatty acid-free BSA) with 5 μL of inhibitor or 5 μL DMSO to measure FAAH total activity. […]

Test [2] has as its target T2, human acid ceramidase (AC) (Homo sapiens, UniProt Q13510).
T2 construct: made in house; host or cells: HEK-293 cells stably overexpressing human AC; enzyme-enriched lysate
T2 sequence (Q13510 143-395 limits assumed): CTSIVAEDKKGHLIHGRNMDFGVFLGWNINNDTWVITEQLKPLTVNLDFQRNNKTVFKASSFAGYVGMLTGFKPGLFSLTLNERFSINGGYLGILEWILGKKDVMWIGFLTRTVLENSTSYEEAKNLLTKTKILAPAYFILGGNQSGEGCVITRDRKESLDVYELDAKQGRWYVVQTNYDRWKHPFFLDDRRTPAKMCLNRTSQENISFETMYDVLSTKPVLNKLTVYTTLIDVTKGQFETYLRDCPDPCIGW
T2 sequence (Q13510 22-142 limits assumed): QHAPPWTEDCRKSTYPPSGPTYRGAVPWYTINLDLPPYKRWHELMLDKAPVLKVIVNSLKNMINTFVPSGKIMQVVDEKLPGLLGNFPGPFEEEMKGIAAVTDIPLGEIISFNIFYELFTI
As to the kind of experiment: Fluorogenic human-AC assay. The test is classed as biochemical. The protocol:
as §1
HEK-293 cells stably transfected with the human NAAA or human AC coding sequences were used as the enzyme source. […] The suspension was finally centrifuged at 105,000g for 1 h at 4 °C, supernatants were collected, protein concentration was measured, and samples were aliquoted and stored at −80 °C until use.
The assay was performed in Optiplate 96-wells black plates (PerkinElmer, Massachusetts, USA) in a total reaction volume of 250 μL. h-AC protein (2 μg) was preincubated for 10 min with various concentrations of test compounds or vehicle control (DMSO 5%) in 25 mM sodium acetate buffer (pH 4.5). […] Fluorescence was measured with the EnVision 2014 Multilabel Reader (PerkinElmer, Massachusetts, USA) at an excitation/emission wavelength of 355/460 nm. […]

On to `CCOCc1cnc(O[C@H]2C[C@H]3CC[C@@H](C2)N3S(=O)(=O)c2c(C)n[nH]c2C)cn1` [Compound 50, (1R,3r,5S)-8-((3,5-Dimethyl-1H-pyrazol-4-yl)sulfonyl)-3-((5-(ethoxymethyl)pyrazin-2-yl)oxy)-8-azabicyclo[3.2.1]octane], for which the inhibition at 30 µM turned out to be 25% in test [1] and 34% in test [2].

One may read the inhibition as the share of the control response that was lost under treatment. The low end stands for a response near the control, the high end for a response far below the control.
